For experiment [1], the target named is KRas G12D/Q61H double mutant (Homo sapiens (Human), UniProt P01116, G12D/Q61H). Description: Ras GTP binding domain inhibition assay (labeled GTP). Particulars: at 20 μM; read-out: KRas G12D Q61H % Inh. The procedure, abridged: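 Ni-plate capture of His-KRas (3-10 μg/ml, o/n, 4° C); Tris pH 7.5/MgCl2/DTT buffer, 1% DMSO. Cpd 20 μM or titration, 3 h RT. Cy3/Cy5-GTP 45 min RT, wash, fluorescence of bound GTP.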

In experiment [2] the target is Rac-1 (Homo sapiens (Human), UniProt P63000). Description: Rac inhibition assay (labeled GTP). Type of experiment: binding. Particulars: read-out: Rac-1 % Inh.
The target in experiment [3] is Rho-A (Homo sapiens (Human), UniProt P61586). Put plainly: Rho inhibition assay (labeled GTP). Type of experiment: binding. Particulars: read-out: Rho-A % Inh.
Rho-A, sequence (P61586 whole entry): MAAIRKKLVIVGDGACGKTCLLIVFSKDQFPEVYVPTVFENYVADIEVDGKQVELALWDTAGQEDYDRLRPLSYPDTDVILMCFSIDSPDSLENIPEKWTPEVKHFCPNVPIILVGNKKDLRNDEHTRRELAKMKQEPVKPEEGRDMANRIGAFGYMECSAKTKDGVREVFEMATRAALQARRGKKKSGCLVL

KRas G12D/Q61H double mutant, sequence (P01116-2 other isoform, or with tags, fused parts or gaps G12D/Q61H): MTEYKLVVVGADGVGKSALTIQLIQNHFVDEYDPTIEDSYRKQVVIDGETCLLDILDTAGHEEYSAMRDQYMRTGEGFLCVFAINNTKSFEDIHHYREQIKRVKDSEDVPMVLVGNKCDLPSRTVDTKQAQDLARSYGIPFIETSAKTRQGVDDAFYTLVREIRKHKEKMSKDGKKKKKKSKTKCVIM

For `CC(C(=O)Nc1ccnc(-c2ccccn2)n1)c1ccc(C#N)cc1` (stereo not drawn) [drawing 3683], the inhibition at 20 µM in experiment [1] is 1 to 25%; in experiment [2] it was 76 to 100%; in experiment [3], 51 to 75%.

Turning to `COCCCCNC(=O)c1csc2nc(-c3ccccn3)nc(N3CCOCC3)c12` [drawing 3678], the inhibition at 20 µM is 1 to 25% in experiment [1], 51 to 75% in experiment [2] and 51 to 75% in experiment [3].

`CC(C(=O)Nc1nc(-c2ccccn2)nc2sccc12)c1ccc(C#N)cc1` (stereo not drawn) [drawing 3687]: the inhibition at 20 µM is 1 to 25% in experiment [1], 76 to 100% in experiment [2] and 76 to 100% in experiment [3].

Regarding `COc1ccnc(-c2nc(O)c3c(Br)csc3n2)c1` [drawing 3632], the inhibition at 20 µM in experiment [1], in experiment [2] and in experiment [3] was 25 to 50% each time.

For `Cn1cnc(-c2nc(O)c3sc(-c4ccncc4)c(-c4ccccc4)c3n2)c1` [drawing 3867], the inhibition at 20 µM in experiment [1] was 0%; in experiment [2], 1 to 25%; in experiment [3] it was 25 to 50%.

On to `Oc1nc(-c2ccccn2)nc2c(-c3ccc(Cl)c(Cl)c3)csc12` [drawing 3781], for which the figures for the inhibition at 20 µM in experiment [1], in experiment [2] and in experiment [3] were 25 to 50%, 25 to 50% and 51 to 75%, respectively.

As to `Oc1nc(-c2ccccn2)nc2c(-c3ccc(OC4CCOCC4)cc3)csc12` [drawing 3739], the figures for the inhibition at 20 µM in experiment [1], in experiment [2] and in experiment [3] were 25 to 50%, 51 to 75% and 51 to 75%, respectively.

On to `COc1nccc(CCNC(=O)c2csc3nc(-c4ccccn4)nc(N4CCOCC4)c23)n1` [drawing 3769], for which the inhibition at 20 µM in experiment [1] fell in the range of 1 to 25%; in experiment [2], 25 to 50%; in experiment [3], 25 to 50%.

Take `COc1cnc(CNC(=O)c2cc3nc(-c4ccccn4)nc(O)c3s2)[nH]c1=O` [drawing 3839]: the inhibition at 20 µM fell in the range of 25 to 50% in experiment [1], 51 to 75% in experiment [2] and 51 to 75% in experiment [3].

For the compound `O=C(c1csc2c(O)nc(-c3ccccn3)nc12)N1CCNC(Cc2cccc(F)c2)C1` (stereo not drawn) [drawing 3704], the inhibition at 20 µM in experiment [1], in experiment [2] and in experiment [3] was 51 to 75% each time.

As for `Oc1nc(-c2ccccn2)nc2c(-c3ccccc3OC3CCCCC3)csc12` [drawing 3738], the inhibition at 20 µM in experiment [1], in experiment [2] and in experiment [3] was 51 to 75% in each case.

Take `O=C(NCCc1ccncn1)c1csc2nc(-c3ccccn3)nc(N3CCOCC3)c12` [drawing 3819]: the inhibition at 20 µM in experiment [1] was in the range of 25 to 50%; in experiment [2] it was 51 to 75%; in experiment [3] it was 51 to 75%.

Take `Nc1nc(-c2ccccn2)nc2c(Br)csc12` [drawing 3764]: the inhibition at 20 µM in experiment [1] was in the range of 25 to 50%; in experiment [2], 51 to 75%; in experiment [3], 51 to 75%.

For `O=C(NCCc1cnc(O)nc1)c1csc2nc(-c3ccccn3)nc(N3CCS(=O)(=O)CC3)c12` [drawing 3726], the inhibition at 20 µM is 25 to 50% in experiment [1], 51 to 75% in experiment [2] and 51 to 75% in experiment [3].

Turning to `Nc1nc(O)c2sc(-c3cccc(C(=O)NC4CCNC4=O)c3)cc2n1` (stereo not drawn) [drawing 3860], the inhibition at 20 µM in experiment [1], in experiment [2] and in experiment [3] was 1 to 25% each time.

As for `COc1cnc(CNC(=O)c2csc3c(O)nc(-c4ccccn4)nc23)[nH]c1=O` [drawing 3838], the inhibition at 20 µM in experiment [1], in experiment [2] and in experiment [3] was 1 to 25% in each case.

Take `Cn1cnc(-c2nc(O)c3c(-c4ccccc4)c(-c4ccc(CNC(=O)OC(C)(C)C)cc4)sc3n2)c1` [drawing 3855]: the results for the inhibition at 20 µM in experiment [1], in experiment [2] and in experiment [3] were 1 to 25%, 25 to 50% and 25 to 50%, respectively.

Take `Nc1nc(-c2ccccn2)nc(C(=O)NCCc2ccncc2)c1Oc1ccccc1` [drawing 3869]: the figures for the inhibition at 20 µM in experiment [1], in experiment [2] and in experiment [3] were 25 to 50%, 51 to 75% and 25 to 50%, respectively.

With `COc1ccncc1CCNC(=O)c1csc2nc(-c3ccccn3)nc(N3CCOCC3)c12` [drawing 3669], the inhibition at 20 µM is 1 to 25% in experiment [1], 51 to 75% in experiment [2] and 25 to 50% in experiment [3].

For the compound `O=C(c1cc2nc(-c3ccccn3)nc(O)c2s1)N1CCOC(c2ccccc2)C1` (stereo not drawn) [drawing 3714], the inhibition at 20 µM was in the range of 51 to 75% in experiment [1], 76 to 100% in experiment [2] and 76 to 100% in experiment [3].

For `COc1ccc(C2CN(C(=O)c3csc4c(O)nc(-c5ccccn5)nc34)CCO2)cc1` (stereo not drawn) [drawing 3657], the inhibition at 20 µM in experiment [1], in experiment [2] and in experiment [3] was 25 to 50% each time.

`N#Cc1ccc(N2CCN(C(=O)c3csc4c(O)nc(-c5ccccn5)nc34)CC2)cc1` [drawing 3645]: the values for the inhibition at 20 µM in experiment [1], in experiment [2] and in experiment [3] were 0%, 51 to 75% and 51 to 75%, respectively.

As to `COCCNc1nc(-c2ccccn2)nc(-c2cccc(OCCN(C)C)c2)c1Oc1ccccc1` [drawing 3847], the inhibition at 20 µM in experiment [1], in experiment [2] and in experiment [3] was 1 to 25% each time.

With `Cc1cncc(-c2csc3c(O)nc(-c4ccccn4)nc23)c1` [drawing 3785], the inhibition at 20 µM in experiment [1] lay in the range of 25 to 50%; in experiment [2], 51 to 75%; in experiment [3], 25 to 50%.

In the case of `Cc1sc2c(O)nc(-c3ccccn3)nc2c1C(=O)O` [drawing 3801], the inhibition at 20 µM in experiment [1] is 25 to 50%; in experiment [2], 1 to 25%; in experiment [3], 25 to 50%.

Regarding `Cc1sc2c(O)nc(-c3ccccn3)nc2c1C(=O)N1CCN(c2ccccc2)CC1` [drawing 3827], the inhibition at 20 µM was 25 to 50% in experiment [1], 76 to 100% in experiment [2] and 76 to 100% in experiment [3].

In the case of `Oc1nc(-c2ccccn2)nc2c(CC3CNC3)csc12` [drawing 3837], the values for the inhibition at 20 µM in experiment [1], in experiment [2] and in experiment [3] were 25 to 50%, 76 to 100% and 76 to 100%, respectively.

As for `Oc1nc(-c2ccccn2)nc2c(C3CCCCC3)csc12` [drawing 3830], the inhibition at 20 µM in experiment [1] was 25 to 50%; in experiment [2] it was 25 to 50%; in experiment [3], 51 to 75%.

For the compound `O=C(c1csc2c(O)nc(-c3ccccn3)nc12)N1CCN(Cc2ccc(O)cc2)CC1` [drawing 3653], the figures for the inhibition at 20 µM in experiment [1], in experiment [2] and in experiment [3] were 1 to 25%, 51 to 75% and 25 to 50%, respectively.

On to `Oc1nc(-c2ccccn2)nc2cc(-c3ccccc3Cl)sc12` [drawing 3874], for which the inhibition at 20 µM in experiment [1] is 1 to 25%; in experiment [2] it was 51 to 75%; in experiment [3], 51 to 75%.

In the case of `O=C(c1csc2c(O)nc(-c3ccccn3)nc12)N1CCNC(c2ccccc2Cl)C1` (stereo not drawn) [drawing 3695], the inhibition at 20 µM in experiment [1] fell in the range of 25 to 50%; in experiment [2], 76 to 100%; in experiment [3], 76 to 100%.

As for `CC(c1ccccc1)N1CCN(C(=O)c2csc3c(O)nc(-c4ccccn4)nc23)CC1` (stereo not drawn) [drawing 3693], the inhibition at 20 µM in experiment [1] was in the range of 51 to 75%; in experiment [2], 76 to 100%; in experiment [3], 76 to 100%.

As for `O=C(c1csc2c(O)nc(-c3ccccn3)nc12)N1CCOC(c2nccs2)C1` (stereo not drawn) [drawing 3631], the inhibition at 20 µM lay within 25 to 50% in experiment [1], 76 to 100% in experiment [2] and 76 to 100% in experiment [3].

Consider `O=C(NCCc1cncnc1)c1csc2nc(-c3ccccn3)nc(N3CCOCC3)c12` [drawing 3673], for which the values for the inhibition at 20 µM in experiment [1], in experiment [2] and in experiment [3] were 1 to 25%, 51 to 75% and 51 to 75%, respectively.

For the compound `O=C(NCCc1cccnc1)c1csc2nc(-c3ccccn3)nc(N3CCOCC3)c12` [drawing 3633], the values for the inhibition at 20 µM in experiment [1], in experiment [2] and in experiment [3] were 1 to 25%, 51 to 75% and 51 to 75%, respectively.

`O=C(c1csc2c(O)nc(-c3ccccn3)nc12)N1CCOC(c2ccccc2)C1` (stereo not drawn) [drawing 3655]: the inhibition at 20 µM was 1 to 25% in experiment [1], 25 to 50% in experiment [2] and 51 to 75% in experiment [3].

`O=C(c1csc2c(O)nc(-c3ccccn3)nc12)N1CCOC(c2cccc(Cl)c2)C1` (stereo not drawn) [drawing 3659]: the inhibition at 20 µM in experiment [1] was 1 to 25%; in experiment [2], 1 to 25%; in experiment [3], 51 to 75%.

For `O=C(NCCc1cccnc1)c1cc2nc(-c3ccccn3)nc(O)c2s1` [drawing 3715], the inhibition at 20 µM in experiment [1] lay within 25 to 50%; in experiment [2] it was 76 to 100%; in experiment [3], 76 to 100%.

In the case of `COc1ccc(CCN(C)C(=O)c2csc3nc(-c4ccccn4)nc(N4CCOCC4)c23)cn1` [drawing 3635], the figures for the inhibition at 20 µM in experiment [1], in experiment [2] and in experiment [3] were 0%, 25 to 50% and 25 to 50%, respectively.

Turning to `COc1ccc(C2CN(C(=O)c3csc4c(O)nc(-c5ccccn5)nc34)CCN2)cc1` (stereo not drawn) [drawing 3663], the inhibition at 20 µM in experiment [1] lay within 1 to 25%; in experiment [2], 76 to 100%; in experiment [3], 76 to 100%.

As to `COc1cnc(C2(N)CCCC2)nc1O` [drawing 3809], the inhibition at 20 µM in experiment [1], in experiment [2] and in experiment [3] was 1 to 25% throughout.

Consider `COC(=O)c1sc2c(O)nc(-c3ccccn3)nc2c1C` [drawing 3795], for which the inhibition at 20 µM in experiment [1] is 25 to 50%; in experiment [2] it was 51 to 75%; in experiment [3], 51 to 75%.

With `COc1cc(CCN(C)C(=O)c2csc3nc(-c4ccccn4)nc(N4CCOCC4)c23)ccn1` [drawing 3670], the inhibition at 20 µM in experiment [1] is 0%; in experiment [2], 76 to 100%; in experiment [3] it was 51 to 75%.

The values are drawn from patent US10940139B2, “Compounds that interact with the Ras superfamily for the treatment of cancers, inflammatory diseases, rasopathies, and fibrotic disease” (Shy Therapeutics LLC, priority 2017, dated 2021).
